Test results: ChEMBL document CHEMBL1275577, “Study of the in vitro activities of rifaximin and comparator agents against 536 anaerobic intestinal bacteria from the perspective of potential utility in pathology involving bowel flora” (Antimicrob Agents Chemother, 2009)

What was measured:
Clostridium bolteae = assay: Antimicrobial activity against Clostridium bolteae by Wadsworth agar dilution method in presence of beta-lactamase inhibitor Sulbactam; type: functional; conditions: Enterocloster bolteae
Hoylesella loescheii = assay: Antimicrobial activity against Prevotella loescheii by Wadsworth agar dilution method in presence of beta-lactamase inhibitor Sulbactam; type: functional
[1] = system: Clostridium aminobutyricum; assay: Antimicrobial activity against Clostridium aminobutyricum by Wadsworth agar dilution method in presence of beta-lactamase inhibitor Sulbactam; type: functional
Blautia luti = assay: Antimicrobial activity against Ruminococcus luti by Wadsworth agar dilution method in presence of beta-lactamase inhibitor Sulbactam; type: functional
[2] = system: Desulfovibrio desulfuricans; assay: Antimicrobial activity against Desulfovibrio desulfuricans by Wadsworth agar dilution method in presence of beta-lactamase inhibitor Sulbactam; type: functional
Clostridium glycolicum = assay: Antimicrobial activity against Clostridium glycolicum by Wadsworth agar dilution method in presence of beta-lactamase inhibitor Sulbactam; type: functional; conditions: Terrisporobacter glycolicus
Eggerthella lenta = assay: Antimicrobial activity against Eggerthella lenta by Wadsworth agar dilution method in presence of beta-lactamase inhibitor Sulbactam; type: functional
Clostridium perfringens = assay: Antimicrobial activity against Clostridium perfringens by Wadsworth agar dilution method in presence of beta-lactamase inhibitor Sulbactam; type: functional
Clostridium hathewayi = assay: Antimicrobial activity against Clostridium hathewayi by Wadsworth agar dilution method in presence of beta-lactamase inhibitor Sulbactam; type: functional; conditions: Hungatella hathewayi
Bilophila wadsworthia = assay: Antimicrobial activity against Bilophila wadsworthia by Wadsworth agar dilution method in presence of 1% pyruvic acid and beta-lactamase inhibitor Sulbactam; type: functional
[3] = system: Paeniclostridium sordellii; assay: Antimicrobial activity against Clostridium sordellii by Wadsworth agar dilution method in presence of beta-lactamase inhibitor Sulbactam; type: functional; conditions: Paraclostridium sordellii
Clostridium subterminale = assay: Antimicrobial activity against Clostridium subterminale by Wadsworth agar dilution method in presence of beta-lactamase inhibitor Sulbactam; type: functional
Bacteroides uniformis = assay: Antimicrobial activity against Bacteroides uniformis by Wadsworth agar dilution method in presence of beta-lactamase inhibitor Sulbactam; type: functional
Bacteroides ovatus = assay: Antimicrobial activity against Bacteroides ovatus by Wadsworth agar dilution method in presence of beta-lactamase inhibitor Sulbactam; type: functional
[4] = system: Coprobacillus cateniformis; assay: Antimicrobial activity against Coprobacillus cateniformis by Wadsworth agar dilution method in presence of beta-lactamase inhibitor Sulbactam; type: functional
Eubacterium cylindroides = assay: Antimicrobial activity against Eubacterium cylindroides by Wadsworth agar dilution method in presence of beta-lactamase inhibitor Sulbactam; type: functional; conditions: Faecalitalea cylindroides
Atopobium minutum = assay: Antimicrobial activity against Atopobium minutum by Wadsworth agar dilution method in presence of beta-lactamase inhibitor Sulbactam; type: functional
[5] = system: Lactobacillus acidophilus; assay: Antimicrobial activity against Lactobacillus acidophilus by Wadsworth agar dilution method in presence of beta-lactamase inhibitor Sulbactam; type: functional
Clostridium bartlettii = assay: Antimicrobial activity against Clostridium bartlettii by Wadsworth agar dilution method in presence of beta-lactamase inhibitor Sulbactam; type: functional; conditions: Intestinibacter bartlettii
[6] = system: Peptostreptococcus anaerobius; assay: Antimicrobial activity against Peptostreptococcus anaerobius by Wadsworth agar dilution method in presence of beta-lactamase inhibitor Sulbactam; type: functional
Schaalia odontolytica = assay: Antimicrobial activity against Actinomyces odontolyticus by Wadsworth agar dilution method in presence of beta-lactamase inhibitor Sulbactam; type: functional
Fusobacterium varium = assay: Antimicrobial activity against Fusobacterium varium by Wadsworth agar dilution method in presence of beta-lactamase inhibitor Sulbactam; type: functional
Holdemania filiformis = assay: Antimicrobial activity against Holdemania filiformis by Wadsworth agar dilution method in presence of beta-lactamase inhibitor Sulbactam; type: functional
Clostridium disporicum = assay: Antimicrobial activity against Clostridium disporicum by Wadsworth agar dilution method in presence of beta-lactamase inhibitor Sulbactam; type: functional
Eubacterium biforme = assay: Antimicrobial activity against Eubacterium biforme by Wadsworth agar dilution method in presence of beta-lactamase inhibitor Sulbactam; type: functional; conditions: Holdemanella biformis
[7] = system: Bifidobacterium pseudolongum; assay: Antimicrobial activity against Bifidobacterium pseudolongum by Wadsworth agar dilution method in presence of beta-lactamase inhibitor Sulbactam; type: functional
[8] = system: Ruminococcus flavefaciens; assay: Antimicrobial activity against Ruminococcus flavefaciens by Wadsworth agar dilution method in presence of beta-lactamase inhibitor Sulbactam; type: functional
[9] = system: Enterocloster clostridioformis; assay: Antimicrobial activity against Clostridium clostridioforme by Wadsworth agar dilution method in presence of beta-lactamase inhibitor Sulbactam; type: functional
Prevotella intermedia = assay: Antimicrobial activity against Prevotella intermedia by Wadsworth agar dilution method in presence of beta-lactamase inhibitor Sulbactam; type: functional
Porphyromonas uenonis = assay: Antimicrobial activity against Porphyromonas uenonis by Wadsworth agar dilution method in presence of beta-lactamase inhibitor Sulbactam; type: functional
Ruminococcus obeum = assay: Antimicrobial activity against Ruminococcus obeum by Wadsworth agar dilution method in presence of beta-lactamase inhibitor Sulbactam; type: functional; conditions: Blautia obeum
Ruminococcus lactaris = assay: Antimicrobial activity against Ruminococcus lactaris by Wadsworth agar dilution method in presence of beta-lactamase inhibitor Sulbactam; type: functional
Clostridium septicum = assay: Antimicrobial activity against Clostridium septicum by Wadsworth agar dilution method in presence of beta-lactamase inhibitor Sulbactam; type: functional
[10] = Drug level in stool of patient with traveler's diarrhea at 800 mg, po administered daily for 3 days; type: ADME, organism-based; conditions: human, in vivo, 72 h

CC1(C)S[C@@H]2[C@H](NC(=O)[C@H](N)c3ccccc3)C(=O)N2[C@H]1C(=O)O [AMPICILLIN]
32 µg/mL: MIC90 (Bacteroides ovatus)
0.5 µg/mL: MIC50 (Hoylesella loescheii) | MIC50 (Prevotella intermedia) | MIC90 (Porphyromonas uenonis)
4 µg/mL: MIC90 (Hoylesella loescheii) | MIC90 (Fusobacterium varium) | MIC90 (Prevotella intermedia)
1 µg/mL: MIC90 (Clostridium bolteae) | MIC90 [1] | MIC90 (Clostridium glycolicum) | MIC90 [3] | MIC90 (Clostridium subterminale) | MIC90 (Clostridium bartlettii) | MIC50 (Fusobacterium varium) | MIC90 (Clostridium disporicum) | MIC [9] | MIC50 [9] | MIC90 (Clostridium septicum)
8 µg/mL: MIC50 [2] | MIC90 [2] | MIC50 (Bacteroides ovatus)
16 µg/mL: MIC90 (Bilophila wadsworthia) | MIC90 (Bacteroides uniformis) | MIC90 [9]
2 µg/mL: MIC90 (Blautia luti) | MIC90 (Eggerthella lenta) | MIC50 (Clostridium hathewayi) | MIC90 (Clostridium hathewayi) | MIC50 (Bilophila wadsworthia) | MIC50 (Bacteroides uniformis) | MIC90 [4] | MIC90 (Eubacterium cylindroides) | MIC90 (Atopobium minutum) | MIC90 [5] | MIC90 [6] | MIC90 (Schaalia odontolytica) | MIC90 (Holdemania filiformis) | MIC90 (Eubacterium biforme) | MIC90 [7] | MIC90 [8] | MIC90 (Ruminococcus obeum) | MIC90 (Ruminococcus lactaris)
0.25 µg/mL: MIC (Clostridium bolteae) | MIC50 (Clostridium bolteae) | MIC [1] | MIC50 [1] | MIC (Blautia luti) | MIC50 (Blautia luti) | MIC (Clostridium glycolicum) | MIC50 (Clostridium glycolicum) | MIC (Eggerthella lenta) | MIC50 (Eggerthella lenta) | MIC50 (Clostridium perfringens) | MIC90 (Clostridium perfringens) | MIC [3] | MIC50 [3] | MIC (Clostridium subterminale) | MIC50 (Clostridium subterminale) | MIC [4] | MIC50 [4] | MIC (Eubacterium cylindroides) | MIC50 (Eubacterium cylindroides) | MIC (Atopobium minutum) | MIC50 (Atopobium minutum) | MIC [5] | MIC50 [5] | MIC (Clostridium bartlettii) | MIC50 (Clostridium bartlettii) | MIC [6] | MIC50 [6] | MIC (Schaalia odontolytica) | MIC50 (Schaalia odontolytica) | MIC (Holdemania filiformis) | MIC50 (Holdemania filiformis) | MIC (Clostridium disporicum) | MIC50 (Clostridium disporicum) | MIC (Eubacterium biforme) | MIC50 (Eubacterium biforme) | MIC [7] | MIC50 [7] | MIC [8] | MIC50 [8] | MIC (Porphyromonas uenonis) | MIC50 (Porphyromonas uenonis) | MIC (Ruminococcus obeum) | MIC50 (Ruminococcus obeum) | MIC (Ruminococcus lactaris) | MIC50 (Ruminococcus lactaris) | MIC (Clostridium septicum) | MIC50 (Clostridium septicum)

CO[C@H]1/C=C/O[C@@]2(C)Oc3c(C)c(O)c4c(O)c(c5c(nc6cc(C)ccn65)c4c3C2=O)NC(=O)/C(C)=C\C=C\[C@H](C)[C@H](O)[C@@H](C)[C@@H](O)[C@@H](C)[C@H](OC(C)=O)[C@@H]1C [RIFAXIMIN]
8000 µg/g: concentration [10]
